Laboratory results published in paper PMC7068222, “Inhibition of Tyrosinase by Mercury Chloride: Spectroscopic and Docking Studies” (Frontiers in Pharmacology, 2020).
Read-outs that look alike come from different tables or passages of the source.

Key:
[1] = system: tyrosinase (monophenolase and diphenolase activity) in the presence of HgCl2; assay: Effect of premixing amino acids with HgCl2 on tyrosinase inhibition (protection of enzyme activity); format: biochemical, mushroom
Method: According to the results of docking study, we furtherly checked the interactions between HgCl2 and amino acid. We assumed that if HgCl2 indeed binds to the amino acid residues of the enzyme, such as His, Val, Glu, and Ala, premixing the amino acid with HgCl2 would affect the inhibitory effects. Thus, the monophenolase and diphenolase activity of tyrosinase both were determined by adding the mixture of HgCl2 and amino acid. The mixture was prepared just before use by adding an aliquot of 200 μL HgCl2 solution to the equal volume of amino acid solution, and which was allowed to react for 10 mins at room temperature. […] In brief, 5 and 10 mmol/L solutions of His, HgCl2 were prepared beforehand, and the mixture was produced by mixing the His and HgCl2 solutions (10 mmol/L) in the volume ratio of 1:1. The spectra of the samples at the wavelengths between 200 and 800 nm were scanned by using UV spectrophotometer (UV 2550, SHIMADZU).The experiment was repeated three times.

[2] = target: T1, mushroom tyrosinase (monophenolase activity) (Agaricus bisporus, UniProt C7FF04); format: biochemical
T1 construct: purchased Sigma-Aldrich
T1 sequence (C7FF04 1-392 limits assumed): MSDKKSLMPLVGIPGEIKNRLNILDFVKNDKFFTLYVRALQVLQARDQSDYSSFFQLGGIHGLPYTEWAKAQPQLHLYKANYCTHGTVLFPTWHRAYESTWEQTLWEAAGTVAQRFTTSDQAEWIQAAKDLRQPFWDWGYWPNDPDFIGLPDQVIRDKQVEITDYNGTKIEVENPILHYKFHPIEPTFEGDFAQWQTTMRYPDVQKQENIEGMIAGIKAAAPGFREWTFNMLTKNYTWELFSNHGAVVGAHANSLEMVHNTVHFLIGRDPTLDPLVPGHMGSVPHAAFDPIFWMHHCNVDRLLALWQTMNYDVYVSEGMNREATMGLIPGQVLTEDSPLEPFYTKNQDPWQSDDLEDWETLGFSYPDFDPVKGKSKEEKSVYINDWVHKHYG
Method: The method was modified based on the previous description ([Chen et al., 2016]). […] The appropriate blanks (containing both tyrosine and HgCl2 but without tyrosinase) were tested and subtracted to correct the absorbance.

[3] = target: T2, mushroom tyrosinase (diphenolase activity) (Agaricus bisporus, UniProt C7FF04); format: biochemical; conditions: substrate dopa 0.5 mmol/L, tyrosinase 13.33 U/mL, pH 6.8, 305 K
Target sequence in this assay (C7FF04 1-392): as the sequence (C7FF04 1-392 limits assumed) above
Method: The assays were carried out by using 3 mL of reaction system containing 0.5 mmol/L substrate (dopa) in 50 mmol/L PBS (pH = 6.8) at 305 K. The final concentration of tyrosinase was 13.33 U/mL. […] Relative enzymatic activity (%) = (A1-A3)/A2×100%. The experiment was repeated three times. The IC50 value was calculated as the concentration (leading to achieve 50% inhibition) according to the equation, which is obtained by curve fitting of the enzyme activity versus the concentrations of inhibitor.

immobilized tyrosinase = target: T3, immobilized tyrosinase (Agaricus bisporus, UniProt C7FF04); format: biochemical, mushroom
T3 construct: purchased Sigma-Aldrich
T3 sequence (C7FF04 1-392 limits assumed): as above
Method: Experiments were conducted to confirm the inhibitory mechanism of HgCl2 on tyrosinase furtherly by using immobilized tyrosinase. In brief, we added 200 µL of diluted tyrosinase (2500 U/mL) to each well of a 24-well polystyrene plate and then covered the plate and incubated it at 4°C overnight to produce immobilized tyrosinase. The plate was brought to room temperature, and we thoroughly decanted the solution from wells and washed the wells two times with PBS to remove the unfixed enzyme. We added 3 mL of inhibitor solution to each well and incubated them at room temperature for 30 mins to assure the fully reaction between the inhibitor and the enzyme, discarding the liquid following by washing the wells two times with PBS to remove the excess inhibitor. Then, 3 mL of PBS was added to each well, and they stood for 10 mins to make the dissociation of inhibitor-tyrosinase complex. WE thoroughly decanted the solution from wells to remove the dissociated inhibitor (the procedure was repeated three times). Finally, 3 mL of substrate (dopa) was added to each well and react at room temperature for 30 mins to test the residual activity of tyrosinase.

tyrosinase = target: T4, tyrosinase (Agaricus bisporus, UniProt C7FF04); assay: Intrinsic fluorescence quenching of tyrosinase; format: binding, mushroom; conditions: for Kq (quenching rate constant): Kq = Ksv/τ0, τ0 = 10^-8 s
T4 construct: purchased Sigma-Aldrich
T4 sequence (C7FF04 1-392): as the sequence (C7FF04 1-392 limits assumed) above
Method: The fluorescence emission spectra were obtained using Spectrofluorometer FS5 (Edinburgh Instruments, England) equipped with a 150 W xenon lamp and a thermostat bath. We added a 2.0 mL aliquot of tyrosinase solution (400 U/mL) to the quartz cuvette (1 cm path length) and gradually added 2 mmol/L solution of HgCl2 to give concentrations ranged from 0 to 400 μmol/L. After five-minute incubation periods, fluorescence in the range of 290–500 nm was measured while the excitation wavelength was fixed at 280 nm. All the fluorescence data collected from these experiments were corrected for absorption of excitation light and re-absorption of emitted light according to the following equation: ([Wang et al., 2015])
where F c and F m represent the corrected and measured fluorescence, respectively. A1 and A2 are the absorbance of HgCl2 at excitation and emission wavelengths, respectively.
To identify the interaction mechanism of HgCl2 on tyrosinase, the data of fluorescence quenching were presented in the form of a Stern-Volmer plot, using the following equation:
(4) F0/F=1+Kqτ0[Q]=1+Ksv[Q]
where, F 0 and F represent the steady-state fluorescence intensities in the absence and presence of HgCl2 (quencher), respectively, [Q] denotes the concentration of HgCl2, K q is the quenching rate constant of the biomolecule (K q = K sv/τ0), K sv is the Stern–Volmer dynamic quenching constant, and τ0 is the average lifetime of the fluorophore in the absence of quencher (τ0 = 10^-8 s). The value of K sv determined by the linear regression plot of F0/F vs. [Q] at 298 and 304 K were (2.14 ± 0.05) × 10^4 and 1.83 ± 0.03 × 10^4 L/mol, respectively. […] K sv values decreased gradually with the increase of the temperatures, which manifested that the fluorescence quenching of tyrosinase by HgCl2 was a static quenching process ([Lin et al., 2018]).
For static quenching interactions, if there are similar and independent sites in biological molecules, the apparent binding constants (K a) and the number of binding sites (n) can be obtained from the following equation:
(5) logF0−F/F=logKa+nlog[Q]

[4] = target: T2, mushroom tyrosinase (diphenolase activity); assay: Kinetic analysis of inhibition mechanism and type (enzyme-concentration plots, Lineweaver-Burk plot, secondary plot); format: biochemical; parameters: purchased Sigma-Aldrich
Source text: (1) 1/ν=Km/Vmax(1+[I]/Ki)1/[S]+1+[I]/Ki/Vmax and a secondary plot is presented below
(2) In.=[I]/KiVmax+1/Vmax where ν is velocity of the enzyme reaction calculated by a change in absorbance at the wavelength of 475 nm per minute in the absence and presence of HgCl2. K m and K i are the Michaelis–Menten constant and inhibition constant, respectively. The values of K m can be calculated from the equation (1). [I] and [S] are the concentrations of inhibitor and substrate, respectively. In. is the intercept value of the Lineweaver–Burk curve. K i should be calculated by the secondary plot of In. vs. [I].
The relationship between enzyme activity (expressed as the rate of the oxidation reaction) and its concentration (6.67, 13.33, 20, 26.67, and 33.33 U/mL) in the presence of different concentrations of HgCl2 (0, 4.17, 16.67, 33.33, and 66.67 μmol/L) was investigated.
Target sequence in this assay (C7FF04 1-392 limits assumed): as above

[5] = from plot of log[(F0-F)/F] vs log[Q]

N[C@@H](Cc1c[nH]cn1)C(=O)O [His, Histidine]
protecting capability on diphenolase activity in the presence of HgCl2 ([1]; His 10.42 μmol/L): 48.83 ± 1.89%
protecting capability on diphenolase activity in the presence of HgCl2 ([1]; His 666.67 μmol/L): 83.43 ± 2.56%
effect on protecting the diphenolase activity in the presence of HgCl2 ([1]; amino acid premixed with HgCl2): significant effect
effect on protecting the monophenolase activity in the presence of HgCl2 ([1]; amino acid premixed with HgCl2): protect the monophenolase activity

[Cl][Hg][Cl] [HgCl2, Mercuric chloride]
lag time of monophenolase reaction at highest inhibitor concentration ([2]; prolonged with increasing inhibitor concentration, without inhibitor 1.44 min (kojic acid series), 2.00 min (HgCl2 series)): 13.4 min
IC50 ([2]; substrate tyrosine 0.5 mmol/L, tyrosinase 33.33 U/mL, pH 6.8, 305 K): 30 µM
IC50 [3]: 77.9 µM
Relative activity (%) of immobilized tyrosinase after inhibitor treatment and washing (immobilized tyrosinase; kojic acid and HgCl2 666.67 μmol/L, 30 min incubation, PBS treatment = 100%, substrate dopa): 28.32%
Ksv (Stern-Volmer quenching constant) (tyrosinase; 298 K): (2.14 ± 0.05) × 10^4 L/mol
Kq (quenching rate constant) (tyrosinase; 298 K): (2.14 ± 0.05) × 10^12 L/mol/s
Ksv (Stern-Volmer quenching constant) (tyrosinase; 304 K): 1.83 ± 0.03 × 10^4 L/mol
Kq (quenching rate constant) (tyrosinase; 304 K): (1.83 ± 0.03) × 10^12 L/mol/s
Ka (apparent binding constant) (tyrosinase; [5]): (2.87 ± 0.02) × 10^4 L/mol
n (number of binding sites) (tyrosinase; [5]): 0.96 ± 0.01
inhibition type (Lineweaver-Burk) ([4]; diphenolase activity, tyrosinase 13.33 U/mL): non-competitive inhibition
Ki ([4]; diphenolase, secondary plot of intercept vs inhibitor concentration, read-out: Ki (inhibition constant)): 29.4 µM
inhibition mechanism (reversibility) ([4]; plots of activity vs enzyme concentration, HgCl2 0-66.67 μmol/L): irreversible

C[C@H](N)C(=O)O [Ala, alanine]
effect on protecting the monophenolase activity in the presence of HgCl2 ([1]; amino acid premixed with HgCl2): no effects

CC(C)[C@H](N)C(=O)O [Val, valine]
effect on protecting the monophenolase activity in the presence of HgCl2 ([1]; amino acid premixed with HgCl2): no effects

N[C@@H](CCC(=O)O)C(=O)O [Glu, glutamate]
effect on protecting the monophenolase activity in the presence of HgCl2 ([1]; amino acid premixed with HgCl2): no effects

CCO [95% ethanol, ethanol, reference compound]
Relative activity (%) of immobilized tyrosinase after inhibitor treatment and washing (immobilized tyrosinase): 3.34%
